11 compounds from PubChem BioAssay AID651630 (Sanford-Burnham Center for Chemical Genomics, 2012) can be followed below.

Each structure is given as a SMILES string. Activity calls are given as the source filed them.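 Rule for the calls: active = lipid-stain IC50 at or below a set limit, with nuclear-stain toxicity IC50 at least five times higher; inactive = the rest.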

One assay deals with DAPI. Briefly: triacylglycerol accumulation inhibitor potency, dose response, cell-based, panel, Nile Red and DAPI fluorescence, H9c2 (AID 651630).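 Note: cells exposed to compound overnight before fixation and staining.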 The conditions noted are these: H9c2 cells, DAPI nuclear fluorescence (cytotoxicity counter-readout), oleic acid.
The subject of the next assay is TAG. The description is as above. The settings on record: H9c2 cells, Nile Red TAG fluorescence, oleic acid.

For the compound `CCOC(=O)c1c(C)[nH]c(C(=O)OCC(=O)NCCc2ccc(OCC)c(OCC)c2)c1C`, the IC50 cytotoxicity (DAPI nuclear signal decrease) in the assay with DAPI (mean of runs) was > 25 µM (inactive); with DAPI (run 1), greater than 25 µM; with DAPI (run 2), greater than 25 µM. The IC50 is > 25 µM (inactive) with TAG (mean of runs), greater than 25 µM in the assay on TAG (run 1) and greater than 25 µM in the assay on TAG (run 2).
For `NC(Cc1ccc(F)cc1)c1csc(Nc2ccc(C(F)(F)F)cn2)n1` (stereo not drawn), the IC50 cytotoxicity (DAPI nuclear signal decrease) is greater than 25 µM in the assay on DAPI (run 1) and 23.8 µM in the assay on DAPI (run 2). The figures for the IC50 in the assay on TAG (run 1) and in the assay with TAG (run 2) were greater than 25 µM and 8.35 µM, respectively.
`COc1cc2c3c(cccc3c1)C(=O)N(CCN1CCCC1)C2=O`: the IC50 cytotoxicity (DAPI nuclear signal decrease) was > 25 µM (inactive) in the assay on DAPI (mean of runs), greater than 25 µM with DAPI (run 1) and greater than 25 µM with DAPI (run 2). In addition, the IC50 was 7.94 µM in the assay with TAG (mean of runs), 8.07 µM with TAG (run 1) and 7.8 µM in the assay with TAG (run 2).
In the case of `CCOc1ccc2nc(-c3ccccc3)nc(SCC(=O)Nc3ncc(C)s3)c2c1`, the IC50 cytotoxicity (DAPI nuclear signal decrease) was > 25 µM (inactive) in the assay with DAPI (mean of runs), greater than 25 µM with DAPI (run 1) and greater than 25 µM in the assay on DAPI (run 2). Further, the IC50 in the assay on TAG (mean of runs) is > 25 µM (inactive); in the assay on TAG (run 1) it was greater than 25 µM; with TAG (run 2) it was greater than 25 µM.
As for `Cc1nc2c(ccc3nc(NC(=O)Cc4cccc5ccccc45)sc32)s1`, the IC50 cytotoxicity (DAPI nuclear signal decrease) in the assay on DAPI (mean of runs) is > 25 µM (inactive); in the assay with DAPI (run 1) it was greater than 25 µM; in the assay with DAPI (run 2) it was greater than 25 µM. For the same compound, the IC50 in the assay with TAG (mean of runs) was 13.3 µM; with TAG (run 1), 11.5 µM; in the assay with TAG (run 2), 15.1 µM.
Regarding `COc1ccc(N=C2C(=Nc3ccc(OC)cc3)N(c3ccc(OC)cc3)C(=S)N2C(=O)c2ccc(OC)cc2)cc1`, the IC50 cytotoxicity (DAPI nuclear signal decrease) in the assay with DAPI (run 1) and in the assay with DAPI (run 2) was greater than 25 µM each time. For the same compound, the IC50 with TAG (mean of runs), with TAG (run 1) and in the assay with TAG (run 2) was less than 0.78 µM in each case.
In the case of `COc1cc2c(c(OC)c1OC)-c1ccc(SC)c(=O)cc1C(NC=O)CC2` (stereo not drawn), the IC50 cytotoxicity (DAPI nuclear signal decrease) is > 25 µM (inactive) in the assay on DAPI (mean of runs), greater than 25 µM with DAPI (run 1) and greater than 25 µM with DAPI (run 2). Also, the IC50 is > 25 µM (inactive) with TAG (mean of runs), greater than 25 µM with TAG (run 1) and greater than 25 µM in the assay with TAG (run 2).
For the compound `N/C(=N\c1nc2ccccc2o1)NC(=O)c1ccc(F)cc1`, the IC50 cytotoxicity (DAPI nuclear signal decrease) is > 25 µM (inactive) in the assay with DAPI (mean of runs), greater than 25 µM in the assay with DAPI (run 1) and greater than 25 µM with DAPI (run 2). Also, the IC50 is > 25 µM (inactive) with TAG (mean of runs), greater than 25 µM in the assay with TAG (run 1) and greater than 25 µM with TAG (run 2).
In the case of `COc1cc2c(c(OC)c1OC)-c1ccc(O)cc1C(NC(C)=O)CC2` (stereo not drawn), the IC50 cytotoxicity (DAPI nuclear signal decrease) is > 25 µM (inactive) with DAPI (mean of runs), greater than 25 µM with DAPI (run 1) and greater than 25 µM in the assay on DAPI (run 2). Further, the IC50 with TAG (mean of runs) was > 25 µM (inactive); in the assay on TAG (run 1), greater than 25 µM; in the assay on TAG (run 2), greater than 25 µM.
For `NC(=O)c1cccc(-c2ccnc3c2CC(C(=O)NCc2ccccc2)O3)c1` (stereo not drawn), the IC50 cytotoxicity (DAPI nuclear signal decrease) in the assay with DAPI (mean of runs) was > 25 µM (inactive); with DAPI (run 1), greater than 25 µM; with DAPI (run 2) it was greater than 25 µM. Also, the IC50 was > 25 µM (inactive) in the assay with TAG (mean of runs), greater than 25 µM in the assay with TAG (run 1) and greater than 25 µM with TAG (run 2).
With `CCN1CCN(Cc2ccc(NC(=O)c3cc(NC(=O)c4cc5cccc(OC)c5o4)cc(OC)c3)cc2C(F)(F)F)CC1`, the IC50 cytotoxicity (DAPI nuclear signal decrease) in the assay on DAPI (mean of runs) was > 25 µM (inactive); with DAPI (run 1) it was greater than 25 µM; in the assay with DAPI (run 2), greater than 25 µM. The IC50 was 13.9 µM in the assay with TAG (mean of runs), 12.7 µM with TAG (run 1) and 15.1 µM in the assay on TAG (run 2).
